From PubChem BioAssay AID1919010 (Molecular Pharmacology Branch, DTP, NCI, 2023)
pIC50: −log10 of the molar value. Where “and” joins values, the source holds several entries; their conditions need not be identical. Identical values can stand only once.

Tested on: Hs578T complex spheroid growth, percent test/control
Assay: Anticancer human tumor Hs578T cell line growth inhibition [AhR];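 note: luminescent viability signal as a proxy for spheroid growth; spheroids exposed to agents for one week after three days of growth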
Conditions: for viability, T/C: stronger effect = lower value; active = viability on the fitted dose curve at most 10% of control; inactive = the rest
Method in brief: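 Complex tumor spheroids co-cultured with HUVEC and human MSC stroma; AhR antagonists tested in combination with standard-of-care and investigational agents. Top concentration at or near clinical Cmax (else 10 microM), half-log dilutions; growth expressed as percent test/control.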

[1] = curve of first compound, second compound 0.1 µM
[2] = curve of first compound, second compound 0.316 µM
[3] = curve of first compound, second compound 1 µM
[4] = curve of first compound, second compound 3.16 µM
[5] = curve of first compound, second compound 10 µM
[6] = second compound 0.1 µM, first compound 0.0316 µM
[7] = second compound 0.1 µM, first compound 0.1 µM
[8] = second compound 0.1 µM, first compound 0.316 µM
[9] = second compound 0.1 µM, first compound 1 µM
[10] = second compound 0.1 µM, first compound 3.16 µM
[11] = second compound 0.1 µM, first compound 10 µM
[12] = second compound 0.316 µM, first compound 0.0316 µM
[13] = second compound 0.316 µM, first compound 0.1 µM
[14] = second compound 0.316 µM, first compound 0.316 µM
[15] = second compound 0.316 µM, first compound 1 µM
[16] = second compound 0.316 µM, first compound 3.16 µM
[17] = second compound 0.316 µM, first compound 10 µM
[18] = second compound 1 µM, first compound 0.0316 µM
[19] = second compound 1 µM, first compound 0.1 µM
[20] = second compound 1 µM, first compound 0.316 µM
[21] = second compound 1 µM, first compound 1 µM
[22] = second compound 1 µM, first compound 3.16 µM
[23] = second compound 1 µM, first compound 10 µM
[24] = second compound 3.16 µM, first compound 0.0316 µM
[25] = second compound 3.16 µM, first compound 0.1 µM
[26] = second compound 3.16 µM, first compound 0.316 µM
[27] = second compound 3.16 µM, first compound 1 µM
[28] = second compound 3.16 µM, first compound 3.16 µM
[29] = second compound 3.16 µM, first compound 10 µM
[30] = second compound 10 µM, first compound 0.0316 µM
[31] = second compound 10 µM, first compound 0.1 µM
[32] = second compound 10 µM, first compound 0.316 µM
[33] = second compound 10 µM, first compound 1 µM
[34] = second compound 10 µM, first compound 3.16 µM
[35] = second compound 10 µM, first compound 10 µM

O=C(C=Cc1cccc(S(=O)(=O)Nc2ccccc2)c1)NO + Cc1ccccc1N=Nc1ccc(NC(=O)c2ccnn2C)c(C)c1
5.75: pIC50 [2] | pIC50 [4]
inactive: viability, T/C [6] 99% | viability, T/C [7] 107% | viability, T/C [8] 94% | viability, T/C [9] 77.5% | viability, T/C [10] 26.2% | viability, T/C [12] 105% | viability, T/C [13] 108% | viability, T/C [14] 94% | viability, T/C [15] 74% | viability, T/C [16] 26.9% | viability, T/C [18] 109% | viability, T/C [19] 104% | viability, T/C [20] 96.5% | viability, T/C [21] 77.6% | viability, T/C [22] 26.9% | viability, T/C [24] 93.5% | viability, T/C [25] 87.2% | viability, T/C [26] 98.5% | viability, T/C [27] 71.9% | viability, T/C [28] 26.3% | viability, T/C [30] 64.2% | viability, T/C [31] 67.2% | viability, T/C [32] 64% | viability, T/C [33] 63.2% | viability, T/C [34] 25.9%
active: viability, T/C [11] 0.74% | viability, T/C [17] 0.66% | viability, T/C [23] 0.82% | viability, T/C [29] 1.13% | viability, T/C [35] 1.32%
5.73: pIC50 [1] | pIC50 [3]
5.82: pIC50 [5]

CC(C)c1c(-c2ccccc2)nc2c(C#N)c[nH]n2c1=O
< 5.00: pIC50 (curve of compound)
inactive: viability, T/C (compound 0.0316 µM) 103% and 106% and 97.8% | viability, T/C (compound 0.1 µM) 106% and 114% and 105% | viability, T/C (compound 0.316 µM) 102% and 101% and 106% | viability, T/C (compound 1 µM) 113% and 101% and 100% | viability, T/C (compound 3.16 µM) 102% and 116% and 98.1% | viability, T/C (compound 10 µM) 101% and 115% and 93.1%

CC1COCCN1c1cc(C2(S(C)(=N)=O)CC2)nc(-c2ccnc3[nH]ccc23)n1 (centres undefined) + CC(CO)NC(=O)c1cc(-c2ccc(Cl)cc2)nn(-c2cnn(C)c2)c1=O
< 5.00: pIC50 [1] | pIC50 [2] | pIC50 [3] | pIC50 [4] | pIC50 [5]
inactive: viability, T/C [6] 112% | viability, T/C [7] 117% | viability, T/C [8] 108% | viability, T/C [9] 107% | viability, T/C [10] 90.5% | viability, T/C [11] 60.3% | viability, T/C [12] 113% | viability, T/C [13] 122% | viability, T/C [14] 127% | viability, T/C [15] 100% | viability, T/C [16] 85.2% | viability, T/C [17] 61.3% | viability, T/C [18] 111% | viability, T/C [19] 134% | viability, T/C [20] 112% | viability, T/C [21] 111% | viability, T/C [22] 94.7% | viability, T/C [23] 66% | viability, T/C [24] 111% | viability, T/C [25] 114% | viability, T/C [26] 114% | viability, T/C [27] 111% | viability, T/C [28] 91.7% | viability, T/C [29] 59.5% | viability, T/C [30] 105% | viability, T/C [31] 121% | viability, T/C [32] 122% | viability, T/C [33] 116% | viability, T/C [34] 90.9% | viability, T/C [35] 58.8%

Nc1ccccc1NC(=O)c1ccc(CNC(=O)OCc2cccnc2)cc1 + Cc1cncc(-c2nc(NCCc3c[nH]c4ccccc34)c3ncn(C(C)C)c3n2)c1
active: viability, T/C [11] 2.58% | viability, T/C [17] 2.84% | viability, T/C [23] 2.17% | viability, T/C [29] 0.49% | viability, T/C [30] 4.97% | viability, T/C [31] 4.48% | viability, T/C [32] 2.94% | viability, T/C [33] 3.5% | viability, T/C [34] 0.48% | viability, T/C [35] 0.4%
> 7.50: pIC50 [5]
inactive: viability, T/C [6] 118% | viability, T/C [7] 115% | viability, T/C [8] 115% | viability, T/C [9] 80.9% | viability, T/C [10] 28.6% | viability, T/C [12] 126% | viability, T/C [13] 116% | viability, T/C [14] 116% | viability, T/C [15] 87.5% | viability, T/C [16] 30.9% | viability, T/C [18] 109% | viability, T/C [19] 106% | viability, T/C [20] 107% | viability, T/C [21] 76.5% | viability, T/C [22] 25.1% | viability, T/C [24] 72% | viability, T/C [25] 69.9% | viability, T/C [26] 55.5% | viability, T/C [27] 36.5% | viability, T/C [28] 10.7%
6.34: pIC50 [4]
5.74: pIC50 [3]
5.67: pIC50 [2]
5.70: pIC50 [1]

CC[C@@]1(O)C(=O)OCc2c1cc1n(c2=O)Cc2cc3c(CN(C)C)c(O)ccc3nc2-1 + Cc1ccccc1N=Nc1ccc(NC(=O)c2ccnn2C)c(C)c1
7.12: pIC50 [5]
< 7.00: pIC50 [1] | pIC50 [2] | pIC50 [3] | pIC50 [4]
inactive: viability, T/C (second compound 0.1 µM, first compound 0.000316 µM) 101% | viability, T/C (second compound 0.1 µM, first compound 0.001 µM) 106% | viability, T/C (second compound 0.1 µM, first compound 0.00316 µM) 89.4% | viability, T/C (second compound 0.1 µM, first compound 0.01 µM) 73.3% | viability, T/C [6] 69.1% | viability, T/C [7] 69.2% | viability, T/C (second compound 0.316 µM, first compound 0.000316 µM) 108% | viability, T/C (second compound 0.316 µM, first compound 0.001 µM) 104% | viability, T/C (second compound 0.316 µM, first compound 0.00316 µM) 89.9% | viability, T/C (second compound 0.316 µM, first compound 0.01 µM) 80.7% | viability, T/C [12] 78.3% | viability, T/C [13] 68.3% | viability, T/C (second compound 1 µM, first compound 0.000316 µM) 99.2% | viability, T/C (second compound 1 µM, first compound 0.001 µM) 110% | viability, T/C (second compound 1 µM, first compound 0.00316 µM) 96% | viability, T/C (second compound 1 µM, first compound 0.01 µM) 79.8% | viability, T/C [18] 71.7% | viability, T/C [19] 61.7% | viability, T/C (second compound 3.16 µM, first compound 0.000316 µM) 94.5% | viability, T/C (second compound 3.16 µM, first compound 0.001 µM) 90.8% | viability, T/C (second compound 3.16 µM, first compound 0.00316 µM) 83.1% | viability, T/C (second compound 3.16 µM, first compound 0.01 µM) 66.8% | viability, T/C [24] 63.4% | viability, T/C [25] 55.9% | viability, T/C (second compound 10 µM, first compound 0.000316 µM) 65.3% | viability, T/C (second compound 10 µM, first compound 0.001 µM) 61.3% | viability, T/C (second compound 10 µM, first compound 0.00316 µM) 65.6% | viability, T/C (second compound 10 µM, first compound 0.01 µM) 59.6% | viability, T/C [30] 50.4% | viability, T/C [31] 50.1%

CC1COCCN1c1cc(-c2ccnn2C)c2ccnc(-c3ccn[nH]3)c2n1 (centres undefined)
inactive: viability, T/C (compound 0.00316 µM) 109% and 104% and 102% | viability, T/C (compound 0.01 µM) 105% and 104% and 114% | viability, T/C (compound 0.0316 µM) 97.8% and 102% and 95.5% | viability, T/C (compound 0.1 µM) 78.7% and 81.3% and 77.2% | viability, T/C (compound 0.316 µM) 60.4% and 51% and 48.1% | viability, T/C (compound 1 µM) 44.3% and 36.2% and 37.9%
6.18 and 6.49 and 6.53: pIC50 (curve of compound)
